Calls of active or inactive are those of the source. How the calls were made is not given here.

Test [1] can be described thus: growth inhibition of vps1Δ apl2Δ yeast, dose response, post-Golgi transport modulator project, S. cerevisiae, background strain comparison (AID 788). To be noted: S. cerevisiae vps1Δ apl2Δ growth inhibition, dose response; at 25 µM (top of the series).
For test [2], the system named is S. cerevisiae wild-type background strain growth inhibition. The test is described as above. As to conditions: S. cerevisiae vps1Δ apl2Δ growth inhibition, dose response; measured here: wild-type background strain growth.
Test [3] has as its system S. cerevisiae vps1Δ apl2Δ growth inhibition, dose response. The description is as above.

`O=C(Nc1nnc(-c2cccs2)o1)c1cccc(C(F)(F)F)c1`: the growth inhibition in test [1] is 36.6% (inactive).

As a reminder, the IC50 is the concentration at which inhibition is half-maximal. For `CCC(C)(C)n1nnnc1C(c1cc2cc3c(cc2[nH]c1=O)OCO3)N1CCN(C)CC1` (centres undefined), the concentration for half-maximal inhibition (IC50) in test [2] is > 10 µM; in test [3], > 10 µM (inactive).

Turning to `Cc1ccnc(N2C(=O)c3cccc4c([N+](=O)[O-])ccc(c34)C2=O)c1`, the values for the IC50 in test [2] and in test [3] were 4.22 µM and 5.37 µM (inactive), respectively.

Regarding `CC(=O)NC1C(c2nc3ccccc3s2)=C(c2ccccc2)C(=O)N1c1ccc(C)cc1` (centres undefined), the half-inhibitory concentration (IC50) is 1.92 µM in test [2] and 2.62 µM (inactive) in test [3].

As for `Cc1nc(NC(=O)c2ccccc2)sc1-c1csc(NCc2ccccc2)n1`, the values for the 50% inhibitory concentration (IC50) in test [2] and in test [3] were > 10 µM and 3.54 µM, respectively.

As to `CCOc1cccc(C(=O)Nc2cccnc2)c1`, the IC50 in test [2] was > 10 µM; in test [3], > 10 µM (inactive).

As to `O=C(Nc1nnc(-c2ccc3c(c2)CCCC3)o1)c1ccc(Cl)cc1Cl`, the concentration for half-maximal inhibition (IC50) in test [2] is 3.46 µM; in test [3], 6.32 µM (inactive).

For `COc1cc(CN2CCN(c3ccc(C)cc3)CC2)cc([N+](=O)[O-])c1O`, the half-maximal inhibitory concentration (IC50) in test [2] is > 10 µM; in test [3], > 10 µM (inactive).

In the case of `COc1ccc(C(=O)Nc2ccc(Cl)cc2C(=O)N2CCCC(C)C2)cc1` (centres undefined), the half-maximal inhibitory concentration (IC50) is > 10 µM in test [2] and > 10 µM (inactive) in test [3].

For `O=[N+]([O-])c1cc(C(F)(F)F)ccc1N/N=C/c1cc2ccccc2nc1Cl`, the IC50 is > 10 µM in test [2] and > 10 µM (inactive) in test [3].

In the case of `O=C(OCn1ncc(Cl)c(Cl)c1=O)c1ccccc1Cl`, the IC50 in test [2] is 16.6 µM; in test [3], 15.5 µM.

Take `O=C(CC(=O)c1cc(Cl)ccc1O)c1ccccc1`: the concentration for half-maximal inhibition (IC50) in test [2] was 12.7 µM; in test [3], 9.8 µM.

Take `O=C(NCc1ccc2c(c1)OCO2)C1CCCN1C(=O)Nc1ccccc1` (centres undefined): the IC50 is > 10 µM in test [2] and > 10 µM (inactive) in test [3].

With `O=C(NCCc1ccccc1)C1CCN(S(=O)(=O)N2CCCC2)CC1`, the figures for the half-maximal inhibitory concentration (IC50) in test [2] and in test [3] were > 10 µM and > 10 µM (inactive), respectively.

For `CCn1c(SCC(=O)N2CCCc3ccccc32)nnc1-c1ccco1`, the IC50 in test [2] was > 10 µM; in test [3], > 10 µM (inactive).

Take `Cc1ccc(C2(C(F)(F)F)N=C3Sc4cc(C)cc(C)c4N3C(=O)N2)cc1` (centres undefined): the 50% inhibitory concentration (IC50) is 1.08 µM in test [2] and 1.5 µM (inactive) in test [3].

`CCOC(=O)N1CCN(c2ccc(S(=O)(=O)N(Cc3ccccc3)Cc3ccccc3)cn2)CC1`: the values for the IC50 in test [2] and in test [3] were > 10 µM and > 10 µM (inactive), respectively.

For the compound `Nc1c(C(=O)OCC2CCCO2)c2nc3ccccc3nc2n1-c1ccc2c(c1)OCCO2` (centres undefined), the concentration for half-maximal inhibition (IC50) in test [2] is > 10 µM; in test [3], > 10 µM (inactive).

Turning to `CCn1c(-c2c[nH]c3ccccc23)n[nH]c1=S`, the half-maximal inhibitory concentration (IC50) was > 10 µM in test [2] and > 10 µM (inactive) in test [3].

With `Cc1ccc(NS(=O)(=O)c2cc(C(=O)N3CCOCC3)ccc2C)cc1`, the results for the half-inhibitory concentration (IC50) in test [2] and in test [3] were > 10 µM and > 10 µM (inactive), respectively.

`O=C(COc1ccc(Cl)cc1)Nc1ccc(N2CCN(C(=O)c3ccco3)CC2)cc1`: the concentration for half-maximal inhibition (IC50) in test [2] was > 10 µM; in test [3], > 10 µM (inactive).

Regarding `N#CC1=C2SCC(O)(c3ccccc3)N2C(=O)CC1c1ccccc1` (centres undefined), the IC50 is > 10 µM in test [2] and > 10 µM (inactive) in test [3].

For `CCOC(=O)c1c(CN2CCCCC2C)oc2ccc(OC)cc12` (centres undefined), the half-inhibitory concentration (IC50) was > 10 µM in test [2] and > 10 µM (inactive) in test [3].

For `O=C(Cc1cccs1)Nc1nc2c(s1)CCCC2`, the results for the IC50 in test [2] and in test [3] were > 10 µM and > 10 µM (inactive), respectively.

As to `Clc1ccc(-c2n[nH]c3c2CCC3)c(Cl)c1`, the concentration for half-maximal inhibition (IC50) in test [2] is 0.518 µM; in test [3] it was 1.04 µM (inactive).

For the compound `O=C(O)c1cc(-c2ccc(/C=N/Nc3ccc(Cl)cc3)o2)ccc1Cl`, the half-maximal inhibitory concentration (IC50) in test [2] was 16.4 µM; in test [3] it was 10.9 µM.

Consider `O=S(=O)(NCC(c1cccnc1)N1CCN(c2ccccc2)CC1)c1cccs1` (centres undefined), for which the IC50 in test [2] was > 10 µM; in test [3], 23 µM.

Consider `O=C1OCC2=C1C(c1ccc(F)cc1)Sc1ccccc1N2` (centres undefined), for which the IC50 is > 10 µM in test [2] and 23.9 µM in test [3].

Take `Cc1ccc(S(=O)(=O)N2CC3CC(C2)c2cccc(=O)n2C3)cc1` (centres undefined): the figures for the IC50 in test [2] and in test [3] were > 10 µM and > 10 µM (inactive), respectively.

On to `Cc1ccc(S(=O)(=O)N2CCN(C3CCN(Cc4ccccc4)CC3)CC2)cc1`, for which the IC50 was > 10 µM in test [2] and 24.5 µM in test [3].

`CCc1cc2c(=O)c(Oc3ccccc3F)c(C)oc2c(CN(C)C)c1O`: the IC50 in test [2] was > 10 µM; in test [3], > 10 µM (inactive).

For the compound `CCOC(=O)c1ccc(NC(=O)c2cn(-c3ccccc3)nc2-c2ccncc2)cc1`, the half-inhibitory concentration (IC50) in test [2] was 11.5 µM; in test [3] it was 19.1 µM (inactive).

Consider `COC(=O)C1=CN(CCCN2CCCC2=O)C=C(C(=O)OC)C1c1ccccc1C(F)(F)F`, for which the IC50 was > 10 µM in test [2] and > 10 µM (inactive) in test [3].

As for `Cn1c(=O)c2nc(NCc3ccccc3)cnc2n(C)c1=O`, the results for the half-inhibitory concentration (IC50) in test [2] and in test [3] were > 10 µM and > 10 µM (inactive), respectively.

For the compound `CCOC(=O)Cn1cc(C=O)c2ccccc21`, the IC50 in test [2] is > 10 µM; in test [3] it was > 10 µM (inactive).

Consider `O=C(Nc1nc(-c2ccccn2)cs1)c1ncc(Cl)c(Cl)c1Cl`, for which the IC50 in test [2] is 13.3 µM; in test [3], 4.41 µM.

For the compound `N=c1c2c(-c3ccccc3)c(-c3ccccc3)n(Cc3ccco3)c2ncn1Cc1ccco1`, the half-inhibitory concentration (IC50) in test [2] was 21.5 µM; in test [3], 16 µM.

Turning to `Cc1cc(=O)[nH]c(SCC(=O)c2ccc(C)c(C)c2)n1`, the IC50 was 2.31 µM in test [2] and 2.13 µM in test [3].

In the case of `Cn1c2ccc(Cl)cc2c2nc3ccccc3nc21`, the IC50 in test [2] was > 10 µM; in test [3], > 10 µM (inactive).

Consider `CN1/C(=C/C2CC(=O)NC2=O)C(C)(C)c2ccccc21` (centres undefined), for which the IC50 was > 10 µM in test [2] and > 10 µM (inactive) in test [3].

`COCCCNc1ccnc2c(Cl)cccc12`: the IC50 in test [2] was > 10 µM; in test [3] it was > 10 µM (inactive).

As for `CCCn1nc([N+](=O)[O-])c(C(C#N)c2nc3ccccc3s2)c(Cl)c1=O` (centres undefined), the concentration for half-maximal inhibition (IC50) in test [2] is 2.16 µM; in test [3], 5.34 µM (inactive).

Consider `Cc1ccc2nc(C)cc(OCC(=O)O)c2c1`, for which the half-inhibitory concentration (IC50) in test [2] is > 10 µM; in test [3], > 10 µM (inactive).

`Cc1cc(C)n2nc(C(=O)NCc3ccccc3)cc2n1`: the figures for the IC50 in test [2] and in test [3] were > 10 µM and > 10 µM (inactive), respectively.

For `O=C(O)Cn1c(SCCOc2ccccc2F)nc2ccccc21`, the IC50 was > 10 µM in test [2] and > 10 µM (inactive) in test [3].

With `CC1CCCN(CCOCCOc2ccc(Cl)cc2Br)C1` (centres undefined), the IC50 was > 10 µM in test [2] and 2.5 µM in test [3].

Turning to `Cc1cc(C(C)(C)C)ccc1OCCN1CCCC1`, the half-maximal inhibitory concentration (IC50) was > 10 µM in test [2] and 17.1 µM in test [3].

Turning to `CCC(C)(C)NC(=O)CN(C(=O)CCC(=O)Nc1ccccn1)c1ccc(F)c(Cl)c1`, the concentration for half-maximal inhibition (IC50) in test [2] was > 10 µM; in test [3], > 10 µM (inactive).

As for `O=C(c1ccc(Cl)cc1Cl)N1CCC(c2nc3c(nnn3Cc3ccco3)c(=O)[nH]2)CC1`, the 50% inhibitory concentration (IC50) was > 10 µM in test [2] and > 10 µM (inactive) in test [3].

For the compound `C=C(C)C1CC=C(CN2CCC(C(=O)OCC)CC2)CC1` (centres undefined), the 50% inhibitory concentration (IC50) in test [2] was > 10 µM; in test [3], 13.5 µM.

The values are drawn from PubChem BioAssay AID788 (SRMLSC, 2007).
